Measurements: US20250145715A1, “B7-H3 TARGETING FUSION PROTEINS AND METHODS OF USE THEREOF” (GT Biopharma, Inc., priority 2021, published 2025)
Entries after “also recorded” stand apart in the source; their conditions may differ.

Legend:
Type in all cases: cell-based, human
[1] = tested on: lung cancer cell lines; assay: NK cell activation against lung cancer cell lines vs K562 / Raji
Description: ADCC was measured in a flow cytometry assay by evaluating degranulation via CD107a (lysosomal-associated membrane protein LAMP-1) and intracellular IFNγ production. Upon thawing, normal donor and patient-derived PBMCs or ascites cells were rested overnight (37° C., 5% CO2) in RPMI 1640 media supplemented with 10% fetal calf serum (RPMI-10). The next morning, they were suspended with tumor-target cells or media after washing twice with RPMI-10. Cells were then incubated with TriKEs or controls for 10 min at 37° C. Fluorescein isothiocyate (FITC)-conjugated anti-human CD107a monoclonal antibody (BD Biosciences, San Jose, CA, USA) was then added. Following an hour 37° C. incubation, GolgiStop (1:1500, BD Biosciences) and GolgiPlug (1:1000, BD Biosciences) were added for 3 h. After washing with phosphate buffered saline, the cells were stained with PE/Cy 7-conjugated anti-CD56 mAb, APC/Cy 7-conjugated anti-CD16 mAb, and PE-CF594-conjugated anti-CD3 mAb (BioLegend, San Diego, CA, USA). Cells were incubated for 15 min at 4° C., washed, and fixed with 2% paraformaldehyde. Cells were then permeabilized using an intracellular perm buffer (BioLegend) to evaluate production of IFNγ through detection via aBV650 conjugated anti-human IFNγ antibody (BioLegend). Samples were washed and evaluated in an LSRII flow cytometer (BD Biosciences, San Jose, CA, USA). […]

[2] = tested on: MA-148 ovarian cancer cells; assay: NK cell CD107a / IFNγ flow cytometry against MA-148; conditions: vs controls
Description: FIG. 29A is a graph illustrating pooled proportion of NK cells from healthy donors expressing CD107a+ (degranulation) against OVCAR8 and MA148 targets. FIG. 29B is a graph illustrating pooled proportion of NK cells from healthy donors expressing IFNγ cytokine production against OVCAR8 and MA148 targets.
Healthy donor or ovarian cancer PBMC cells were incubated with ovarian tumor targets at 2:1 E:T ratio for 4 hrs with 30 nM TriKE or control condition. FIG. 30A is a graph illustrating pooled proportion of NK cells from healthy donors expressing CD107a+ (degranulation) against OVCAR8 targets (N=8). […] FIG. 30I is a graph illustrating that tumor killing was evaluated using IncuCyte imaging assay. […] The percentage of Live (Nuclight Red+Caspase 3/7−) tumor cells was quantified over a 48-h period and normalized to tumor alone. Readings were obtained every 15 min (representative of four separate experiments). * p<0.05, ** p<0.01, *** p<0.001, and **** p<0.0001.
ADCC was measured in a flow cytometry assay by evaluating degranulation via CD107a (lysosomal-associated membrane protein LAMP-1) and intracellular IFNγ production. […] Samples were washed and evaluated in an LSRII flow cytometer (BD Biosciences, San Jose, CA, USA).
The ability of cam1615B7-H3 TriKE to mediate NK cell activity against ovarian cancer cells was evaluated. […]

[3] = tested on: HNSCC cells (Cal27, Cal33); assay: IncuCyte 2D and 3D spheroid killing of HNSCC; conditions: 2D and 3D IncuCyte; E:T 5:1, 3 nM; irrespective of FANCA gene; vs B7-H3 single domain or IL-15 alone
Description: FIGS. 28A-28F illustrate real-time imaging assays. FIG. 28A is a graph showing Nuclight red-labeled Cal27 survival after incubation with NK cells at an E:T of 5:1 in different conditions: no treatment or 3 nM IL-15, B7-H3 SD and B7-H3 TriKE for 48 hours in an IncuCyte Zoom imager. […] FIG. 28C is a graph illustrating the size of the spheroid in FIG. 28B. FIG. 28D is a graph showing Nuclight red-labeled Cal33 survival after incubation with NK cells at an E:T of 5:1 in different conditions: no treatment or 3 nM IL-15, B7-H3 SD and B7-H3 TriKE for 48 hours in an IncuCyte Zoom imager. […] FIG. 28F is a graph illustrating the size of the spheroid in FIG. 28E.
NK cell responses against HNSCC lines in the presence of the B7-H3 TriKE were assessed through either flow cytometry based functional assays, to evaluate NK cell degranulation and cytokine secretion, or IncuCyte imaging assays, to directly assess target killing. […]
Enriched NK cells (N=4) were incubated with Nuclight red-labeled Cal27 at an E:T of 5:1 in different conditions: no treatment or 3 nM IL-15, B7-H3 SD and B7-H3 TriKE for 48 hours in an IncuCyte Zoom imager. Quantifications of percent live cells were done by normalizing hourly counts of red cells to targets alone at t=0. […] Quantifications of percent average red object area (live cells) were done by normalizing hourly counts of average red object area to targets alone at t=0. […]

Substance	NK cell degranulation and IFNγ production against lung cancer cells vs K562 targets alone [1]	B7-H3 specificity of activation against lung cancer cell lines ([1]; vs B7-H3− Raji cells)	NK cell activity against MA-148 ([2]; normal donor NK cells)	NK cell degranulation against MA-148 ([2]; ovarian-cancer-derived ascites samples)	HNSCC target cell killing by NK cells [3]
cam1615B7-H3: second-generation TriKE: humanized camelid anti-CD16 VHH, human wild-type IL-15, anti-B7-H3 mAb 376.96 scFv; SEQ ID NO:1	higher than that seen when NK cells are incubated with K562 targets alone	specific to B7-H3 expression	robust activity	significantly enhanced NK cell degranulation	–
B7-H3 TriKE: camelid nanobodies targeting CD16 and B7-H3 joined by IL-15 and two linkers; sequence table equates the name with cam1615B7-H3	–	–	–	–	more HNSCC target cell killing; also recorded: induced NK cell killing against HNSCC
